From ChEMBL document CHEMBL5226308, “Amide-Amine Replacement in Indole-2-carboxamides Yields Potent Mycobactericidal Agents with Improved Water Solubility” (ACS Med Chem Lett, 2021)
Active and inactive are the calls of the source. The calls are words filed in the database; no cut-off is given here.

Key:
[1] = system: Mycobacterium tuberculosis; assay: Antimycobacterial activity against Mycobacterium tuberculosis H37Rv M16-5 harboring G253E mutant assessed as inhibition of bacterial growth incubated for 7 days by broth dilution method; type: functional, organism-based; conditions: time 7.0 day
[2] = system: Mycobacterium tuberculosis; assay: Antimycobacterial activity against Mycobacterium tuberculosis H37Rv M47-2 harboring I244F mutant assessed as inhibition of bacterial growth incubated for 7 days by broth dilution method; type: functional, organism-based; conditions: time 7.0 day
[3] = system: Mycobacterium tuberculosis; assay: Antimycobacterial activity against Mycobacterium tuberculosis H37Rv M47-1 harboring A700T mutant assessed as inhibition of bacterial growth incubated for 7 days by broth dilution method; type: functional, organism-based; conditions: time 7.0 day
[4] = system: Mycobacterium tuberculosis; assay: Antimycobacterial activity against Mycobacterium tuberculosis H37Rv M47-4 harboring V681I mutant assessed as inhibition of bacterial growth incubated for 7 days by broth dilution method; type: functional, organism-based; conditions: time 7.0 day
[5] = system: Mycobacterium tuberculosis; assay: Antimycobacterial activity against Mycobacterium tuberculosis H37Rv M47-3 harboring Ins710Q mutant assessed as inhibition of bacterial growth incubated for 7 days by broth dilution method; type: functional, organism-based; conditions: time 7.0 day
[6] = system: Mycobacterium tuberculosis; assay: Antimycobacterial activity against Mycobacterium tuberculosis H37Rv M16-1 harboring V285A mutant assessed as inhibition of bacterial growth incubated for 7 days by broth dilution method; type: functional, organism-based; conditions: time 7.0 day
[7] = system: Mycobacterium tuberculosis; assay: Antimycobacterial activity against Mycobacterium tuberculosis H37Rv M16-3 harboring V684G mutant assessed as inhibition of bacterial growth incubated for 7 days by broth dilution method; type: functional, organism-based; conditions: time 7.0 day
[8] = system: Mycobacterium tuberculosis; assay: Antimycobacterial activity against Mycobacterium tuberculosis H37Rv M16-4 harboring V684A mutant assessed as inhibition of bacterial growth incubated for 7 days by broth dilution method; type: functional, organism-based; conditions: time 7.0 day
[9] = system: Mycobacterium tuberculosis; assay: Antimycobacterial activity against Mycobacterium tuberculosis H37Rv M33-1 harboring V643M mutant assessed as inhibition of bacterial growth incubated for 7 days by broth dilution method; type: functional, organism-based; conditions: time 7.0 day
[10] = Ratio of MIC90 for antimycobacterial activity against Mycobacterium tuberculosis H37Rv M16-5 harboring mmpL3 G758A/G253E mutant to MIC90 for antimycobacterial activity against wild type Mycobacterium tuberculosis H37Rv ATCC 27294; type: functional
[11] = Ratio of MIC90 for antimycobacterial activity against Mycobacterium tuberculosis H37Rv M47-3 harboring mmpL3 Ins2128CAG/Ins710Q mutant to MIC90 for antimycobacterial activity against wild type Mycobacterium tuberculosis H37Rv ATCC 27294; type: functional
[12] = Ratio of MIC90 for antimycobacterial activity against Mycobacterium tuberculosis H37Rv M16-3 harboring mmpL3 T2051G/V684G mutant to MIC90 for antimycobacterial activity against wild type Mycobacterium tuberculosis H37Rv ATCC 27294; type: functional
[13] = Ratio of MIC90 for antimycobacterial activity against Mycobacterium tuberculosis H37Rv M47-4 harboring mmpL3 G2041A/V681I mutant to MIC90 for antimycobacterial activity against wild type Mycobacterium tuberculosis H37Rv ATCC 27294; type: functional
[14] = Ratio of MIC90 for antimycobacterial activity against Mycobacterium tuberculosis H37Rv M16-2 harboring mmpL3 G758A/G253E mutant to MIC90 for antimycobacterial activity against wild type Mycobacterium tuberculosis H37Rv ATCC 27294; type: functional
[15] = Ratio of MIC90 for antimycobacterial activity against Mycobacterium tuberculosis H37Rv M16-4 harboring mmpL3 T2051C/V684A mutant to MIC90 for antimycobacterial activity against wild type Mycobacterium tuberculosis H37Rv ATCC 27294; type: functional
[16] = Ratio of MIC90 for antimycobacterial activity against Mycobacterium tuberculosis H37Rv M16-1 harboring mmpL3 T854C/V258A mutant to MIC90 for antimycobacterial activity against wild type Mycobacterium tuberculosis H37Rv ATCC 27294; type: functional
[17] = Ratio of MIC90 for antimycobacterial activity against Mycobacterium tuberculosis H37Rv M47-2 harboring mmpL3 A730T/I244F mutant to MIC90 for antimycobacterial activity against wild type Mycobacterium tuberculosis H37Rv ATCC 27294; type: functional
[18] = Ratio of MIC90 for antimycobacterial activity against Mycobacterium tuberculosis H37Rv M33-1 harboring mmpL3 G1927A/V643M mutant to MIC90 for antimycobacterial activity against wild type Mycobacterium tuberculosis H37Rv ATCC 27294; type: functional
[19] = Ratio of MIC90 for antimycobacterial activity against Mycobacterium tuberculosis H37Rv M47-1 harboring mmpL3 G2098A/A700T mutant to MIC90 for antimycobacterial activity against wild type Mycobacterium tuberculosis H37Rv ATCC 27294; type: functional

Row | SMILES | Activity [1] | Activity [2] | Activity [3] | Activity [4] | Activity [5] | Activity [6] | Activity [7] | Activity [8] | Activity [9] | Ratio [10] | Ratio [11] | Ratio [12] | Ratio [13] | Ratio [14] | Ratio [15] | Ratio [16] | Ratio [17] | Ratio [18] | Ratio [19]
1 | O=C(NC1CCCCCCC1)c1cc2ccccc2[se]1 | inactive | inactive | inactive | inactive | inactive | inactive | inactive | inactive | inactive |  |  |  |  |  |  |  |  |  | 
2 | c1ccc2sc(CNC3CCCCCCC3)cc2c1 |  |  |  |  |  |  |  |  |  | 5 | 5 | 5 | 5 | 5 | 5 | 5 | 5 | 5 | 5
3 | FC(F)(F)c1ccc2cc(CNC3CCCCCCC3)[nH]c2c1 |  |  |  |  |  |  |  |  |  | 5 | 5 | 5 | 5 | 5 | 5 | 5 | 5 | 5 | 5
4 | c1ccc2[se]c(CNC3CCCCCCC3)cc2c1 | inactive | inactive | inactive | inactive | inactive | inactive | inactive | inactive | inactive |  |  |  |  |  |  |  |  |  | 
5 | O=C(NC1CCCCCCC1)c1cc2ccccc2s1 | inactive | inactive | inactive | inactive | inactive | inactive | inactive | inactive | inactive |  |  |  |  |  |  |  |  |  | 
6 | O=C(NC1CCCCCCC1)c1cc2ccc(C(F)(F)F)cc2[nH]1 |  |  |  |  |  |  |  |  |  | 5 | 5 | 5 | 5 | 5 | 5 | 5 | 5 | 5 | 5
